Data published in patent publication US4963570A, “1-(acetylaminophenyl)-2-aminopropanone derivatives and pharmaceutical compositions thereof” (Laboratoire L. Lafon, priority 1983, dated 1990).
Entries after “also recorded” stand apart in the source; their conditions may differ.

Experiments:
[1] = system: mice; test: overall behavior and reactivities in mice; assay type: in vivo, mouse; conditions: mice, i.p.; dose not stated
Protocol: (§1) Groups of three animals are observed before and then 0.25 hour, 0.50 hour, 1 hour, 2 hours, 3 hours and 24 hours after the administration of CRL 41 224.

[2] = system: rats; test: overall behavior and reactivities in rats; assay type: in vivo, rat; conditions: i.p., dose not stated
Protocol: as §1

[3] = system: mice; test: interaction with apomorphine in mice; assay type: in vivo, mouse; conditions: i.p.; dose not stated
Protocol: Groups of 6 mice receive CRL 41 224 0.5 hour before the subcutaneous injection of 1 or 16 mg/kg of apomorphine.

[4] = system: rats; test: interaction with apomorphine in rats; assay type: in vivo, rat; conditions: i.p., dose not stated
Protocol: CRL 41 224 is administered to groups of 6 rats 0.5 hour before the subcutaneous injection of 0.5 mg/kg of apomorphine.

[5] = system: rats; test: interaction with amphetamine; assay type: in vivo, rat; conditions: rats, i.p.; dose not stated
Protocol: Amphetamine (2 mg/kg) is injected intraperitoneally into groups of 6 rats 30 minutes after the administration of CRL 41 224.

[6] = system: mice; test: interaction with reserpine; assay type: in vivo, mouse; conditions: i.p.; dose not stated
Protocol: Four hours after the intraperitoneal injection of 2.5 mg/kg of reserpine, groups of 6 mice receive CRL 41 224.

[7] = system: mice; test: interaction with oxotremorine; assay type: in vivo, mouse; conditions: i.p.; dose not stated
Protocol: CRL 41 224 is administered to groups of 6 mice 0.5 hour before the intraperitoneal injection of 0.5 mg/kg of oxotremorine.

[8] = system: mice; test: four plate test, traction and electric shock; assay type: in vivo, mouse; conditions: i.p.; dose not stated
Protocol: The test is performed on groups of 10 mice 30 minutes after the administration of CRL 41 224.

[9] = system: mice; test: action on the spontaneous motility (actimeter); assay type: in vivo, mouse
Protocol: 0.5 hour after they have received CRL 41 224, the mice (6 per dose, 12 control animals) are placed in an actimeter, where their motility is recorded for 30 minutes.

[10] = system: mice; test: motility reduced by habituation to the enclosure; assay type: in vivo, mouse; conditions: i.p., dose not stated
Protocol: After they have stayed in the actimeters for 18 hours, the mice (6 per dose, 12 control animals) receive CRL 41 224. They are immediately returned to their respective enclosures and, half an hour later, their motility is recorded for 30 minutes.

[11] = system: mice; test: motility reduced by hypoxic aggression; assay type: in vivo, mouse; conditions: i.p., dose not stated
Protocol: Half an hour after they have received CRL 41 224, the mice (10 per dose, 20 control animals) are subjected to acute hypobaric anoxia [pressure reduction of 600 mm Hg (i.e. about 8×10^4 Pa) in 90 seconds; release of vacuum in 45 seconds] and are then placed in an actimeter, where their motility is recorded for 10 minutes.

[12] = system: mice; test: interaction with barbital; assay type: in vivo, mouse
Protocol: Half an hour after the administration of CRL 41 224, groups of 10 mice receive an intraperitoneal injection of barbital (220 mg/kg).

[13] = system: mice; test: action on the behavioral despair; assay type: in vivo, mouse; conditions: i.p., dose not stated
From the text: Half an hour after they have received CRL 41 224, groups of 6 mice are placed in a beaker filled with water to a height of 6 cm. The total period of immobility between the 2nd and 6th minutes following immersion is noted.

[14] = system: man; test: clinical trials; assay type: in vivo, human; conditions: tablets or gelatine capsules 2 mg, 2 to 3 per day
[15] = system: CNS; test: overall neuropsychopharmacological (CNS) profile; assay type: in vivo, mouse; rat; conditions: i.p., mice and rats; dose not stated
Protocol: The neuropsychopharmacological study of CRL 41 219 was carried out as indicated above for CRL 41 224.
The neuropsychopharmacological study of CRL 41 220 was carried out in accordance with the procedures given above for CRL 41 224.

[16] = system: peripheral α-adrenergic stimulation; test: signs of peripheral adrenergic stimulation; assay type: in vivo, mouse; rat; conditions: i.p.; dose not stated
Protocol: as §1

[17] = system: mice; test: toxicity to grouped mice compared with isolated mice; assay type: in vivo, mouse
[18] = system: rats; test: action on stereotypies in rats (α-methyltyrosine, haloperidol, reserpine); conditions: i.p.

Structure (SMILES): CC(=O)Nc1ccc(C(=O)C(C)NC(C)(C)C)cc1 (stereo not shown) [CRL 41 177]
- excitation in mice [1]: excitation with hyperreactivity in mice
- stereotype movements in rats [2]: stereotype movements in rats
- hypothermia induced by apomorphine [3]: antagonism of the hypothermia induced by apomorphine
- stereotypies induced by apomorphine [4]: potentiation of the stereotypies induced by apomorphine
- stereotypies induced by amphetamine [5]: potentiation of the stereotypies induced by apomorphine or amphetamine
- hypothermia induced by reserpine [6]: antagonism of the hypothermia induced by apomorphine, oxotremorine or reserpine
- ptosis induced by reserpine [6]: antagonism of the ptosis induced by reserpine
- hypothermia induced by oxotremorine [7]: antagonism of the hypothermia induced by apomorphine, oxotremorine
- trembling caused by oxotremorine [7]: antagonism of the trembling caused by oxotremorine
- convulsant effects of electric shock [8]: potentiate the convulsant effects of electric shock
- effect on spontaneous motility, gastric versus intraperitoneal ([9]; male mice, gastric): greater than on intraperitoneal administration
- spontaneous motility / motor activity ([9]; mice, i.p., dose not stated): an increase in the spontaneous motility in mice
- motor activity after habituation to the enclosure [10]: a resumption in the motor activity of mice accustomed to their enclosure
- motor recovery after hypoxic aggression [11]: an improvement in the motor recovery in mice after acute hypoxia
- sleep induced by barbital ([12]; i.p., dose not stated): antagonism of the sleep induced by barbital
- interaction with barbital, gastric versus intraperitoneal ([12]; male mice, gastric): greater than on intraperitoneal administration
- period of immobility or "despair" [13]: a reduction in the immobility
- clinical result: antidepressant [14]: excellent antidepressant drug
- overall action on the CNS [15]: stimulant effects; also recorded: antidepressant effects
- exophthalmos [16]: absent
- mydriasis [16]: mydriasis
- peripheral adrenergic stimulation, overall [16]: effects which may reflect peripheral adrenergic stimulation
- salivation [16]: absent
- toxicity to grouped mice compared with isolated mice [17]: do not increase the toxicity to grouped mice
- suppression of induced stereotype movements by prior injection of alpha-methyltyrosine [18]: not suppressed
